Experimental data published in ChEMBL document CHEMBL5352452, “Design, synthesis and pharmacological evaluation of β-carboline derivatives as potential antitumor agent via targeting autophagy” (Eur J Med Chem, 2023).

Tests used:
Type in all cases: functional, cell-based
BGC-823 = assay: Antiproliferative activity against human BGC-823 cells assessed as inhibition of cell growth measured after 48 hrs by MTT assay; details: BGC-823, 48 h
MCF7 = assay: Antiproliferative activity against human MCF7 cells assessed as inhibition of cell growth measured after 48 hrs by MTT assay; details: MCF7, 48 h
A-375 = assay: Antiproliferative activity against human A-375 cells assessed as inhibition of cell growth measured after 48 hrs by MTT assay; details: A-375, 48 h
786-0 = assay: Antiproliferative activity against human 786-0 cells assessed as inhibition of cell growth measured after 48 hrs by MTT assay; details: 786-0, 48 h
HT-29 = assay: Antiproliferative activity against human HT-29 cells assessed as inhibition of cell growth measured after 48 hrs by MTT assay; details: HT-29, 48 h
[1] = Antiproliferative activity against human BIU-87 cells assessed as inhibition of cell growth measured after 48 hrs by MTT assay; details: BIU87, 48 h
KB = assay: Antiproliferative activity against human KB cells assessed as inhibition of cell growth measured after 48 hrs by MTT assay
CWR22R = assay: Antiproliferative activity against human 22Rv1 cells assessed as inhibition of cell growth measured after 48 hrs by MTT assay; details: 22Rv1, 48 h
SK-OV-3 = assay: Antiproliferative activity against human SK-OV-3 cells assessed as inhibition of cell growth measured after 48 hrs by MTT assay; details: SK-OV-3, 48 h
ECa-109 cell line = assay: Antiproliferative activity against human Eca-109 cells assessed as inhibition of cell growth measured after 48 hrs by MTT assay; details: ECa-109, 48 h

CN1CCN(Cc2cc3c([nH]c4ccccc43)c(CN3CCN(C)CC3)n2)CC1
IC50 (BGC-823): > 100 µM
IC50 (MCF7): > 100 µM
IC50 (A-375): > 100 µM
IC50 (786-0): 28.4 µM
IC50 (HT-29): 83.3 µM
IC50 [1]: > 100 µM
IC50 (KB): > 100 µM
IC50 (CWR22R): > 100 µM
IC50 (SK-OV-3): > 100 µM
IC50 (ECa-109 cell line): > 100 µM

CN1CCN(Cc2cc3c4ccccc4n(Cc4ccccc4)c3c(CN3CCN(C)CC3)n2)CC1
IC50 (BGC-823): 58.3 µM
IC50 (MCF7): 27.5 µM
IC50 (A-375): 13.6 µM
IC50 (786-0): 2.36 µM
IC50 (HT-29): 6.42 µM
IC50 [1]: 15.5 µM
IC50 (KB): 24.2 µM
IC50 (CWR22R): 6.47 µM
IC50 (SK-OV-3): 15.6 µM
IC50 (ECa-109 cell line): 16.8 µM

CN1CCN(Cc2cc3c4ccccc4n(C)c3c(CN3CCN(C)CC3)n2)CC1
IC50 (BGC-823): > 100 µM
IC50 (MCF7): > 100 µM
IC50 (A-375): 85.9 µM
IC50 (786-0): 13.4 µM
IC50 (HT-29): 46.8 µM
IC50 [1]: > 100 µM
IC50 (KB): > 100 µM
IC50 (CWR22R): > 100 µM
IC50 (SK-OV-3): 93.5 µM
IC50 (ECa-109 cell line): > 100 µM

CCCCn1c2ccccc2c2cc(CN3CCN(C)CC3)nc(CN3CCN(C)CC3)c21
IC50 (BGC-823): 98.5 µM
IC50 (MCF7): 50.2 µM
IC50 (A-375): 17.2 µM
IC50 (786-0): 2.32 µM
IC50 (HT-29): 11 µM
IC50 [1]: 23.9 µM
IC50 (KB): 34.8 µM
IC50 (CWR22R): 4.63 µM
IC50 (SK-OV-3): 27.3 µM
IC50 (ECa-109 cell line): 25.6 µM

CN1CCN(Cc2cc3c4ccccc4n(Cc4cccc(Cl)c4)c3c(CN3CCN(C)CC3)n2)CC1
IC50 (BGC-823): 36.8 µM
IC50 (MCF7): 15.8 µM
IC50 (A-375): 12 µM
IC50 (786-0): 3.21 µM
IC50 (HT-29): 5.68 µM
IC50 [1]: 8.01 µM
IC50 (KB): 15.6 µM
IC50 (CWR22R): 4.93 µM
IC50 (SK-OV-3): 4.62 µM
IC50 (ECa-109 cell line): 11.3 µM

CN1CCN(Cc2cc3c4ccccc4n(Cc4ccc(F)cc4)c3c(CN3CCN(C)CC3)n2)CC1
IC50 (BGC-823): 48.7 µM
IC50 (MCF7): 36.4 µM
IC50 (A-375): 16.8 µM
IC50 (786-0): 2.68 µM
IC50 (HT-29): 5.98 µM
IC50 [1]: 16.9 µM
IC50 (KB): 28.6 µM
IC50 (CWR22R): 5.62 µM
IC50 (SK-OV-3): 8.72 µM
IC50 (ECa-109 cell line): 9.87 µM
